Source: US20170071944A1, “MODULATORS OF TOLL-LIKE RECEPTORS FOR THE TREATMENT OF HIV” (Gilead Sciences, Inc., priority 2015, published 2017)

System: immune cell subsets in PBMC cultures from HIV-1 infected subjects on cART
Assay: Induced immune cell activation in PBMC cultures from HIV-1 infected subjects on cART (flow cytometry)
Type: cell-based, human
Conditions: for B Cells CD69 % / B Cells CD69 Fold vs DMSO / B Cells CD80 % / B Cells CD80 Fold vs DMSO / DCs CD69 % / DCs CD69 Fold vs DMSO / DCs CD80 % / DCs CD80 Fold vs DMSO / CD4+ T Cells CD25 % / CD4+ T Cells CD25 Fold vs DMSO / CD4+ T Cells CD69 % / CD4+ T Cells CD69 Fold vs DMSO / CD4+ T Cells Perforin % / CD4+ T Cells Perforin Fold vs DMSO / CD8+ T Cells CD25 % / CD8+ T Cells CD25 Fold vs DMSO / CD8+ T Cells CD28 % / CD8+ T Cells CD28 Fold vs DMSO / CD8+ T Cells CD38 % / CD8+ T Cells CD38 Fold vs DMSO / CD8+ T Cells CD69 % / CD8+ T Cells CD69 Fold vs DMSO / Monocytes CD11c % / Monocytes CD11c Fold vs DMSO / Monocytes CD69 % / Monocytes CD69 Fold vs DMSO / Monocytes CD80 % / Monocytes CD80 Fold vs DMSO / NK Cells CD25 % / NK Cells CD25 Fold vs DMSO / NK Cells CD69 % / NK Cells CD69 Fold vs DMSO: 2 days, geometric mean; for B Cells CD69 % / B Cells CD69 Fold vs DMSO / B Cells CD80 % / B Cells CD80 Fold vs DMSO / DCs CD69 % / DCs CD69 Fold vs DMSO / DCs CD80 % / DCs CD80 Fold vs DMSO: N = 4; for CD4+ T Cells CD25 % / CD4+ T Cells CD25 Fold vs DMSO / CD4+ T Cells CD69 % / CD4+ T Cells CD69 Fold vs DMSO / CD4+ T Cells Perforin % / CD4+ T Cells Perforin Fold vs DMSO / CD8+ T Cells CD25 % / CD8+ T Cells CD25 Fold vs DMSO / CD8+ T Cells CD28 % / CD8+ T Cells CD28 Fold vs DMSO / CD8+ T Cells CD38 % / CD8+ T Cells CD38 Fold vs DMSO / CD8+ T Cells CD69 % / CD8+ T Cells CD69 Fold vs DMSO / Monocytes CD11c % / Monocytes CD11c Fold vs DMSO / Monocytes CD69 % / Monocytes CD69 Fold vs DMSO / Monocytes CD80 % / Monocytes CD80 Fold vs DMSO / NK Cells CD25 % / NK Cells CD25 Fold vs DMSO / NK Cells CD69 % / NK Cells CD69 Fold vs DMSO: N = 6
Procedure: TLR8 modulating compound affects activation of distinct cell populations, PBMCs were purified from HIV-1 infected subjects on cART, as described in Example 121 (anonymized participant IDs 184, 185, 188, 189, 190, and 191). […] After incubation, PBMCs were harvested and stained with antibodies conjugated to specific fluorophores (BD Biosciences) to delineate immune cell subsets: CD4 T cells (CD3+ CD4+ CD8-), CD8 T cells (CD3+ CD8+ CD4-), NK cells (CD3-CD56+ CD16+), monocytes (CD3-CD14+), B cells (CD3-CD19+), and peripheral dendritic cells (DCs), defined as positive for HLA-DR and negative for a panel of markers: CD3, CD14, CD16, CD19, CD20, CD56 (Lin-1 lineage panel, BD Biosciences).
Additional markers of activation, maturation, and effector function were included for cell subsets, as follows: CD4 and CD8 T cells (CD25, CD38, CD69, IFN-γ, granzyme B, perforin, TNF-α), NK cells (CD25, CD69, IFN-γ), monocytes (CD11c, CD16, CD80, CD86, CD163, TNF-α), B cells (CD40, CD69, CD80, CD86), and DC (CD11c, CD69, CD80, CD86, CD123, and CD163). Cells were stained for surface markers (CD3, CD4, CD8, CD11c, CD14, CD16, CD25, CD69, CD80, CD86, CD163), washed, treated with fixation and permeabilization buffer (eBioscience), and stained for intracellular markers (IFN-γ, granzyme B, perforin, TNF-α). Cells were evaluated by flow cytometry on a LSR Fortessa (BD Biosciences), and data was analyzed with FlowJo software (TreeStar).
Data are expressed as geometric mean percentage (%) and as geometric mean fold-activation (Fold) for each marker and for each PBMC subset obtained from 4 or 6 subjects, as indicated. Fold activation is calculated as a ratio of the % positive for each marker for each PBMC subset at the indicated concentration of the compound of Example 15 relative to % positive for DMSO treated samples. Fold activations that are 1.5 are in bold.

CCCC[C@H](CO)Nc1nc(N)nc2cccnc12 [Example 15]
Perforin in CD8+ T cells with treatment: did not increase | B Cells CD69 % (Example 15 10 nM): 10.0% | B Cells CD69 Fold vs DMSO (Example 15 10 nM): 1.2 fold | B Cells CD80 % (Example 15 10 nM): 2.6% | B Cells CD80 Fold vs DMSO (Example 15 10 nM): 1.6 fold | DCs CD69 % (Example 15 10 nM): 0.3% | DCs CD69 Fold vs DMSO (Example 15 10 nM): 0.1 fold | DCs CD80 % (Example 15 10 nM): 49.8% | DCs CD80 Fold vs DMSO (Example 15 10 nM): 1.8 fold | CD4+ T Cells CD25 % (Example 15 10 nM): 1.5% | CD4+ T Cells CD25 Fold vs DMSO (Example 15 10 nM): 0.6 fold | CD4+ T Cells CD69 % (Example 15 10 nM): 5.7% | CD4+ T Cells CD69 Fold vs DMSO (Example 15 10 nM): 0.7 fold | CD4+ T Cells Perforin % (Example 15 10 nM): 11.8% | CD4+ T Cells Perforin Fold vs DMSO (Example 15 10 nM): 1.5 fold | CD8+ T Cells CD25 % (Example 15 10 nM): 0.2% | CD8+ T Cells CD25 Fold vs DMSO (Example 15 10 nM): 0.6 fold | CD8+ T Cells CD28 % (Example 15 10 nM): 0.1% | CD8+ T Cells CD28 Fold vs DMSO (Example 15 10 nM): 0.9 fold | CD8+ T Cells CD38 % (Example 15 10 nM): 25.3% | CD8+ T Cells CD38 Fold vs DMSO (Example 15 10 nM): 0.9 fold | CD8+ T Cells CD69 % (Example 15 10 nM): 3.7% | CD8+ T Cells CD69 Fold vs DMSO (Example 15 10 nM): 0.8 fold | Monocytes CD11c % (Example 15 10 nM): 0.4% | Monocytes CD11c Fold vs DMSO (Example 15 10 nM): 0.6 fold | Monocytes CD69 % (Example 15 10 nM): 0.8% | Monocytes CD69 Fold vs DMSO (Example 15 10 nM): 0.3 fold | Monocytes CD80 % (Example 15 10 nM): 33.0% | Monocytes CD80 Fold vs DMSO (Example 15 10 nM): 1.1 fold | NK Cells CD25 % (Example 15 10 nM): 0.2% | NK Cells CD25 Fold vs DMSO (Example 15 10 nM): 0.4 fold | NK Cells CD69 % (Example 15 10 nM): 0.8% | NK Cells CD69 Fold vs DMSO (Example 15 10 nM): 0.4 fold | B Cells CD69 % (Example 15 100 nM): 3.9% | B Cells CD69 Fold vs DMSO (Example 15 100 nM): 0.5 fold | B Cells CD80 % (Example 15 100 nM): 1.7% | B Cells CD80 Fold vs DMSO (Example 15 100 nM): 1.1 fold | DCs CD69 % (Example 15 100 nM): 1.0% | DCs CD69 Fold vs DMSO (Example 15 100 nM): 0.4 fold | DCs CD80 % (Example 15 100 nM): 67.2% | DCs CD80 Fold vs DMSO (Example 15 100 nM): 2.4 fold | CD4+ T Cells CD25 % (Example 15 100 nM): 3.9% | CD4+ T Cells CD25 Fold vs DMSO (Example 15 100 nM): 1.7 fold | CD4+ T Cells CD69 % (Example 15 100 nM): 7.7% | CD4+ T Cells CD69 Fold vs DMSO (Example 15 100 nM): 1.0 fold | CD4+ T Cells Perforin % (Example 15 100 nM): 10.4% | CD4+ T Cells Perforin Fold vs DMSO (Example 15 100 nM): 1.3 fold | CD8+ T Cells CD25 % (Example 15 100 nM): 0.3% | CD8+ T Cells CD25 Fold vs DMSO (Example 15 100 nM): 1.0 fold | CD8+ T Cells CD28 % (Example 15 100 nM): 0.1% | CD8+ T Cells CD28 Fold vs DMSO (Example 15 100 nM): 1.1 fold | CD8+ T Cells CD38 % (Example 15 100 nM): 29.2% | CD8+ T Cells CD38 Fold vs DMSO (Example 15 100 nM): 1.0 fold | CD8+ T Cells CD69 % (Example 15 100 nM): 3.4% | CD8+ T Cells CD69 Fold vs DMSO (Example 15 100 nM): 0.7 fold | Monocytes CD11c % (Example 15 100 nM): 3.6% | Monocytes CD11c Fold vs DMSO (Example 15 100 nM): 5.2 fold | Monocytes CD69 % (Example 15 100 nM): 1.8% | Monocytes CD69 Fold vs DMSO (Example 15 100 nM): 0.6 fold | Monocytes CD80 % (Example 15 100 nM): 47.7% | Monocytes CD80 Fold vs DMSO (Example 15 100 nM): 1.6 fold | NK Cells CD25 % (Example 15 100 nM): 0.8% | NK Cells CD25 Fold vs DMSO (Example 15 100 nM): 1.6 fold | NK Cells CD69 % (Example 15 100 nM): 1.1% | NK Cells CD69 Fold vs DMSO (Example 15 100 nM): 0.6 fold
